This note sets out measurements from US11691949B2, “Quinoline sulfonamide compounds and their use as antibacterial agents” (OTAGO INNOVATION LIMITED, priority 2017, dated 2023).

The structures appear in SMILES notation. Values after ≈ are worked out from the molar mass of the structure shown. Like-named read-outs stand apart in the source and are kept apart here.

Common to all, as to format: cell-based
For one experiment, the system named is S. aureus ATCC 6538. As to the kind of experiment: MIC by broth microdilution, S. aureus. As to conditions: Staphylococcus aureus, read-out: S. aureus ATCC 6538 MIC. In short, it runs like this:
(§1)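 Overnight cultures diluted to ~5×10^5 cfu/mL final; S. aureus in TSB and CAMHB, E. coli in LB and CAMHB, zinc sulphate to 50 μM final as required; two-fold serial dilutions. MIC = lowest concentration with no growth by OD600 after 24 h, 37° C, 200 rpm. MBC by Miles-Misra drop-plate viability count.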

The next experiment relates to S. uberis ATCC 19436. As to the kind of experiment: MIC by broth microdilution, S. uberis. Particulars: Streptococcus uberis, read-out: S. uberis ATCC 19436 MIC. Summed up: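 The MIC against S. uberis ATCC 19436 was the lowest compound concentration showing no growth by OD600 after 24 h at 37° C. with 200 rpm shaking. Cultures grown overnight were adjusted to OD600 ~0.025 so wells held approximately 5×10^5 cfu/mL in THB. Two-fold dilution series were made at a final volume of 200 μl. Media and untreated controls were run in triplicate on each plate.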
In general terms: Broth dilution looks for growth in wells or tubes with falling amounts of substance.

Another experiment has as its system E. coli ATCC 10596. Description: MIC by broth microdilution, E. coli. Particulars: Escherichia coli, read-out: E. coli ATCC 10536 MIC. In short, it runs like this:
as §1

[1] abbreviates: ATCC 10536 / ATCC 10596, No Zinc.
The mark [2] stands for this setting: ATCC 10536 / ATCC 10596, Zinc (50 μM).

In general, MIC refers to the lowest concentration found to suppress growth. Consider `O=S(=O)(Nc1cccc2ccc(CNCCF)nc12)c1ccc(C(F)(F)F)cc1` [ZDR099, N-(2-(((2-Fluoroethyl)amino)methyl)quinolin-8-yl)-4-(trifluoromethyl)benzenesulfonamide], for which the MIC in the experiment with S. aureus ATCC 6538 (ATCC6538, No Zinc) was 64 µg/mL (≈ 150 µM); in the experiment with S. aureus ATCC 6538 (ATCC6538, Zinc (50 μM)), above 256 µg/mL; in the experiment with S. uberis ATCC 19436 (ATCC19436, No Zinc) it was 64 µg/mL (≈ 150 µM); in the experiment with S. uberis ATCC 19436 (ATCC19436, Zinc (50 μM)), 0.25 µg/mL (≈ 0.585 µM); with E. coli ATCC 10596 (setting [1]) it was above 256 µg/mL; with E. coli ATCC 10596 (setting [2]), 256 µg/mL (≈ 599 µM).
On to `O=S(=O)(Nc1cccc2ccc(CNCC(F)F)nc12)c1ccc(C(F)(F)F)cc1` [ZDR100, N-(2-(((2,2-Difluoroethyl)amino)methyl)quinolin-8-yl)-4-(trifluoromethyl)benzenesulfonamide], for which the MIC in the experiment on S. aureus ATCC 6538 (ATCC6538, No Zinc) was 32 µg/mL (≈ 71.8 µM); with S. aureus ATCC 6538 (ATCC6538, Zinc (50 μM)), 256 µg/mL (≈ 575 µM); in the experiment on S. uberis ATCC 19436 (ATCC19436, No Zinc) it was 128 µg/mL (≈ 287 µM); in the experiment with S. uberis ATCC 19436 (ATCC19436, Zinc (50 μM)), 0.25 µg/mL (≈ 0.561 µM); with E. coli ATCC 10596 (setting [1]), above 256 µg/mL; in the experiment on E. coli ATCC 10596 (setting [2]) it was above 256 µg/mL.
Turning to `O=S(=O)(Nc1cccc2ccc(CNCc3cccnc3)nc12)c1ccc(C(F)(F)F)cc1` [ZDR101, N-(2-(((Pyridin-3-ylmethyl)amino)methyl)quinolin-8-yl)-4-(trifluoromethyl)benzenesulfonamide], the minimum inhibitory concentration (MIC) in the experiment on S. aureus ATCC 6538 (ATCC6538, No Zinc) is 64 µg/mL (≈ 135 µM); with S. aureus ATCC 6538 (ATCC6538, Zinc (50 μM)), 64 µg/mL (≈ 135 µM); in the experiment with S. uberis ATCC 19436 (ATCC19436, No Zinc), above 256 µg/mL; in the experiment on S. uberis ATCC 19436 (ATCC19436, Zinc (50 μM)), 4 µg/mL (≈ 8.47 µM); in the experiment on E. coli ATCC 10596 (setting [1]), 128 µg/mL (≈ 271 µM); with E. coli ATCC 10596 (setting [2]) it was above 256 µg/mL.
Take `O=S(=O)(Nc1cccc2ccc(CNCc3ccccc3)nc12)c1ccc(C(F)(F)F)cc1` [ZDR103]: the MIC with S. aureus ATCC 6538 (ATCC6538, No Zinc) was 128 µg/mL (≈ 271 µM); in the experiment on S. aureus ATCC 6538 (ATCC6538, Zinc (50 μM)) it was above 256 µg/mL; in the experiment with S. uberis ATCC 19436 (ATCC19436, No Zinc) it was above 256 µg/mL; in the experiment on S. uberis ATCC 19436 (ATCC19436, Zinc (50 μM)) it was 0.125 µg/mL (≈ 0.265 µM); in the experiment on E. coli ATCC 10596 (setting [1]), above 256 µg/mL; in the experiment with E. coli ATCC 10596 (setting [2]), above 256 µg/mL.
Regarding `O=S(=O)(Nc1cccc2ccc(CNCc3ccco3)nc12)c1ccc(C(F)(F)F)cc1` [ZDR106, N-(2-(((Furan-2-ylmethyl)amino)methyl)quinolin-8-yl)-4-(trifluoromethyl)benzenesulfonamide], the minimum inhibitory concentration (MIC) is above 256 µg/mL with S. aureus ATCC 6538 (ATCC6538, No Zinc); above 256 µg/mL with S. aureus ATCC 6538 (ATCC6538, Zinc (50 μM)); 64 µg/mL (≈ 139 µM) in the experiment with S. uberis ATCC 19436 (ATCC19436, No Zinc); 0.25 µg/mL (≈ 0.542 µM) in the experiment with S. uberis ATCC 19436 (ATCC19436, Zinc (50 μM)); above 256 µg/mL in the experiment on E. coli ATCC 10596 (setting [1]); above 256 µg/mL in the experiment on E. coli ATCC 10596 (setting [2]).
For the compound `O=S(=O)(Nc1cccc2ccc(CNCc3cccs3)nc12)c1ccc(C(F)(F)F)cc1` [ZDR107, N-(2-(((Thiophen-2-ylmethyl)amino)methyl)quinolin-8-yl)-4-(trifluoromethyl)benzenesulfonamide], the MIC is above 256 µg/mL in the experiment with S. aureus ATCC 6538 (ATCC6538, No Zinc); 64 µg/mL (≈ 134 µM) in the experiment with S. aureus ATCC 6538 (ATCC6538, Zinc (50 μM)); 64 µg/mL (≈ 134 µM) with S. uberis ATCC 19436 (ATCC19436, No Zinc); 0.125 µg/mL (≈ 0.262 µM) in the experiment on S. uberis ATCC 19436 (ATCC19436, Zinc (50 μM)); above 256 µg/mL in the experiment with E. coli ATCC 10596 (setting [1]); above 256 µg/mL in the experiment on E. coli ATCC 10596 (setting [2]).
Consider `O=S(=O)(Nc1cccc2ccc(CNc3ccccc3)nc12)c1ccc(C(F)(F)F)cc1` [ZDR108, N-(2-((Phenylamino)methyl)quinolin-8-yl)-4-(trifluoromethyl)benzenesulfonamide], for which the MIC is 64 µg/mL (≈ 140 µM) with S. aureus ATCC 6538 (ATCC6538, No Zinc); above 256 µg/mL in the experiment on S. aureus ATCC 6538 (ATCC6538, Zinc (50 μM)); above 256 µg/mL in the experiment with S. uberis ATCC 19436 (ATCC19436, No Zinc); 0.25 µg/mL (≈ 0.546 µM) in the experiment on S. uberis ATCC 19436 (ATCC19436, Zinc (50 μM)); above 256 µg/mL with E. coli ATCC 10596 (setting [1]); above 256 µg/mL in the experiment with E. coli ATCC 10596 (setting [2]).
On to `O=S(=O)(Nc1cccc2ccc(CNc3ccccn3)nc12)c1ccc(C(F)(F)F)cc1` [ZDR109, N-(2-((Pyridin-2-ylamino)methyl)quinolin-8-yl)-4-(trifluoromethyl)benzenesulfonamide], for which the MIC in the experiment on S. aureus ATCC 6538 (ATCC6538, No Zinc) is above 256 µg/mL; in the experiment with S. aureus ATCC 6538 (ATCC6538, Zinc (50 μM)) it was above 256 µg/mL; in the experiment with S. uberis ATCC 19436 (ATCC19436, No Zinc) it was above 256 µg/mL; with S. uberis ATCC 19436 (ATCC19436, Zinc (50 μM)) it was 0.5 µg/mL (≈ 1.09 µM); with E. coli ATCC 10596 (setting [1]), above 256 µg/mL; with E. coli ATCC 10596 (setting [2]), above 256 µg/mL.
`O=S(=O)(Nc1cccc2ccc(CNCc3ccncc3)nc12)c1ccc(C(F)(F)F)cc1` [ZDR110, N-(2-(((Pyridin-4-ylmethyl)amino)methyl)quinolin-8-yl)-4-(trifluoromethyl)benzenesulfonamide]: the minimum inhibitory concentration (MIC) is above 256 µg/mL with S. aureus ATCC 6538 (ATCC6538, No Zinc); above 256 µg/mL in the experiment on S. aureus ATCC 6538 (ATCC6538, Zinc (50 μM)); above 256 µg/mL in the experiment with S. uberis ATCC 19436 (ATCC19436, No Zinc); 4 µg/mL (≈ 8.47 µM) in the experiment on S. uberis ATCC 19436 (ATCC19436, Zinc (50 μM)); above 256 µg/mL in the experiment on E. coli ATCC 10596 (setting [1]); above 256 µg/mL in the experiment with E. coli ATCC 10596 (setting [2]).
With `O=S(=O)(Nc1cccc2ccc(CNCCN3CCSCC3)nc12)c1ccc(C(F)(F)F)cc1` [ZDR113, N-(2-(((2-Thiomorpholinoethyl)amino)methyl)quinolin-8-yl)-4-(trifluoromethyl)benzenesulfonamide], the MIC is above 256 µg/mL with S. aureus ATCC 6538 (ATCC6538, No Zinc); above 256 µg/mL with S. aureus ATCC 6538 (ATCC6538, Zinc (50 μM)); 128 µg/mL (≈ 251 µM) in the experiment with S. uberis ATCC 19436 (ATCC19436, No Zinc); 1 µg/mL (≈ 1.96 µM) with S. uberis ATCC 19436 (ATCC19436, Zinc (50 μM)); above 256 µg/mL with E. coli ATCC 10596 (setting [1]); above 256 µg/mL in the experiment with E. coli ATCC 10596 (setting [2]).
